#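 Briefly, cells in 96-well plates were exposed to five compound concentrations for 48 h, and endpoints were estimated by linear interpolation. GI50 marks 50% less growth.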 The source made the active and inactive calls. Rule as the data show it: active = GI50 up to about 1.1 µM and inactive = higher.
# What was measured:
# Experiment in all cases: NCI-60 cell line screen, 48 h
# UO-31 = system: UO-31
# HL-60 = system: HL-60
# M14 = system: M14
# NCI-H460 = system: NCI-H460
# COLO 205 = system: COLO 205
# SN12C = system: SN12C
# K562 = system: K562
# MDA-N = system: MDA-N
# IGROV-1 = system: IGROV-1
# HCC 2998 = system: HCC 2998
# UACC-62 = system: UACC-62
# SR = system: SR
# OVCAR-8 = system: OVCAR-8
# NCI-H522 = system: NCI-H522
# HOP-92 = system: HOP-92
# OVCAR-3 = system: OVCAR-3
# HOP-62 = system: HOP-62
# CCRF-CEM = system: CCRF-CEM
# KM12 = system: KM12
# ACHN = system: ACHN
# Hs-578T = system: Hs-578T
# SF-268 = system: SF-268
# NCI-H226 = system: NCI-H226
# SF-539 = system: SF-539
# TK-10 = system: TK-10
# NCI/ADR-RES = system: NCI/ADR-RES
# RXF 393 = system: RXF 393
# DU-145 = system: DU-145
# SK-MEL-5 = system: SK-MEL-5
# SNB-75 = system: SNB-75
# HCT-116 = system: HCT-116
# OVCAR-5 = system: OVCAR-5
# SNB-19 = system: SNB-19
# T47D = system: T47D
# NCI-H23 = system: NCI-H23
# BT-549 = system: BT-549
# MCF7 = system: MCF7
# 786-0 = system: 786-0
# SK-OV-3 = system: SK-OV-3
# SK-MEL-28 = system: SK-MEL-28
# MOLT-4 = system: MOLT-4
# SW-620 = system: SW-620
# OVCAR-4 = system: OVCAR-4
# SF-295 = system: SF-295
# HCT-15 = system: HCT-15
# UACC-257 = system: UACC-257
# U-251 = system: U-251
# EKVX = system: EKVX
# MDA-MB-231 = system: MDA-MB-231
# HT-29 = system: HT-29
# MDA-MB-435 = system: MDA-MB-435
# PC-3 = system: PC-3
# CAKI-1 = system: CAKI-1
# LOX IMVI = system: LOX IMVI
# A549 = system: A549
# RPMI-8226 = system: RPMI-8226
# SK-MEL-2 = system: SK-MEL-2
# Malme-3M = system: Malme-3M
smiles,measurement,setting,value
C=CCC1(c2ccc(OC)cc2)C=CC(=O)CC1 (stereo unspecified),GI50,UO-31,> 100 µM (inactive)
same,GI50,HL-60,38.9 µM (inactive)
same,GI50,M14,> 100 µM (inactive)
same,GI50,NCI-H460,> 100 µM (inactive)
same,GI50,COLO 205,> 100 µM (inactive)
same,GI50,SN12C,> 100 µM (inactive)
same,GI50,K562,40.2 µM (inactive)
same,GI50,MDA-N,65.8 µM (inactive)
same,GI50,IGROV-1,> 100 µM (inactive)
same,GI50,HCC 2998,> 100 µM (inactive)
same,GI50,UACC-62,68.7 µM (inactive)
same,GI50,SR,44.3 µM (inactive)
same,GI50,OVCAR-8,> 100 µM (inactive)
same,GI50,NCI-H522,77.1 µM (inactive)
same,GI50,HOP-92,44.9 µM (inactive)
same,GI50,OVCAR-3,> 100 µM (inactive)
same,GI50,HOP-62,> 100 µM (inactive)
same,GI50,CCRF-CEM,24.3 µM (inactive)
same,GI50,KM12,> 100 µM (inactive)
same,GI50,ACHN,> 100 µM (inactive)
same,GI50,Hs-578T,28.5 µM (inactive)
same,GI50,SF-268,> 100 µM (inactive)
same,GI50,NCI-H226,> 100 µM (inactive)
same,GI50,SF-539,> 100 µM (inactive)
same,GI50,TK-10,> 100 µM (inactive)
same,GI50,NCI/ADR-RES,33.2 µM (inactive)
same,GI50,RXF 393,94 µM (inactive)
same,GI50,DU-145,> 100 µM (inactive)
same,GI50,SK-MEL-5,> 100 µM (inactive)
same,GI50,SNB-75,19.4 µM (inactive)
same,GI50,HCT-116,> 100 µM (inactive)
same,GI50,OVCAR-5,> 100 µM (inactive)
same,GI50,SNB-19,> 100 µM (inactive)
same,GI50,T47D,> 100 µM (inactive)
same,GI50,NCI-H23,> 100 µM (inactive)
same,GI50,BT-549,70.6 µM (inactive)
same,GI50,MCF7,> 100 µM (inactive)
same,GI50,786-0,> 100 µM (inactive)
same,GI50,SK-OV-3,> 100 µM (inactive)
same,GI50,SK-MEL-28,> 100 µM (inactive)
same,GI50,MOLT-4,28.6 µM (inactive)
same,GI50,SW-620,> 100 µM (inactive)
same,GI50,OVCAR-4,> 100 µM (inactive)
same,GI50,SF-295,> 100 µM (inactive)
same,GI50,HCT-15,72.3 µM
same,GI50,UACC-257,> 100 µM (inactive)
same,GI50,U-251,52.4 µM (inactive)
same,GI50,EKVX,> 100 µM (inactive)
same,GI50,MDA-MB-231,92.7 µM (inactive)
same,GI50,HT-29,> 100 µM (inactive)
same,GI50,MDA-MB-435,66.4 µM (inactive)
same,GI50,PC-3,77.3 µM (inactive)
same,GI50,CAKI-1,> 100 µM (inactive)
same,GI50,LOX IMVI,> 100 µM (inactive)
same,GI50,A549,> 100 µM (inactive)
COc1ccc2c(c1)CC1C3(CCCCC23)CC[N+]1(C)C (stereo unspecified),GI50,UO-31,> 100 µM (inactive)
same,GI50,HL-60,50.5 µM (inactive)
same,GI50,M14,> 100 µM (inactive)
same,GI50,NCI-H460,> 100 µM (inactive)
same,GI50,COLO 205,> 100 µM (inactive)
same,GI50,SN12C,38.7 µM (inactive)
same,GI50,K562,75.5 µM (inactive)
same,GI50,MDA-N,> 100 µM (inactive)
same,GI50,IGROV-1,> 100 µM (inactive)
same,GI50,HCC 2998,> 100 µM (inactive)
same,GI50,UACC-62,> 100 µM (inactive)
same,GI50,RPMI-8226,> 100 µM (inactive)
same,GI50,SR,> 100 µM (inactive)
same,GI50,OVCAR-8,> 100 µM (inactive)
same,GI50,NCI-H522,58.9 µM (inactive)
same,GI50,HOP-92,87.5 µM (inactive)
same,GI50,OVCAR-3,75.5 µM (inactive)
same,GI50,HOP-62,> 100 µM (inactive)
same,GI50,CCRF-CEM,> 100 µM (inactive)
same,GI50,KM12,> 100 µM (inactive)
same,GI50,ACHN,> 100 µM (inactive)
same,GI50,Hs-578T,> 100 µM (inactive)
same,GI50,SF-268,90.8 µM (inactive)
same,GI50,SK-MEL-2,> 100 µM (inactive)
same,GI50,NCI-H226,> 100 µM (inactive)
same,GI50,TK-10,> 100 µM (inactive)
same,GI50,NCI/ADR-RES,> 100 µM (inactive)
same,GI50,RXF 393,> 100 µM (inactive)
same,GI50,DU-145,> 100 µM (inactive)
same,GI50,SK-MEL-5,> 100 µM (inactive)
same,GI50,SNB-75,34.4 µM (inactive)
same,GI50,HCT-116,> 100 µM (inactive)
same,GI50,OVCAR-5,> 100 µM (inactive)
same,GI50,SNB-19,73.5 µM (inactive)
same,GI50,T47D,> 100 µM (inactive)
same,GI50,NCI-H23,> 100 µM (inactive)
same,GI50,BT-549,24.9 µM (inactive)
same,GI50,MCF7,> 100 µM (inactive)
same,GI50,786-0,> 100 µM (inactive)
same,GI50,SK-OV-3,> 100 µM (inactive)
same,GI50,SK-MEL-28,> 100 µM (inactive)
same,GI50,MOLT-4,> 100 µM (inactive)
same,GI50,OVCAR-4,> 100 µM (inactive)
same,GI50,SF-295,> 100 µM (inactive)
same,GI50,HCT-15,> 100 µM
same,GI50,UACC-257,> 100 µM (inactive)
same,GI50,U-251,66.7 µM (inactive)
same,GI50,EKVX,> 100 µM (inactive)
same,GI50,Malme-3M,> 100 µM (inactive)
same,GI50,MDA-MB-231,> 100 µM (inactive)
same,GI50,HT-29,> 100 µM (inactive)
same,GI50,MDA-MB-435,84.9 µM (inactive)
same,GI50,PC-3,> 100 µM (inactive)
same,GI50,CAKI-1,> 100 µM (inactive)
same,GI50,LOX IMVI,> 100 µM (inactive)
same,GI50,A549,> 100 µM (inactive)
